Laboratory results from patent US20260355225A1 (priority 2022, published 2026).

Test system: SARS-CoV-2
Assay: Antiviral assay, inhibition of virus-induced cytopathic effect (CPE) of SARS-CoV-2 by MTT assay (Example 1)
Conditions: Severe acute respiratory syndrome coronavirus 2, Vero C1008, SARS-CoV-2, Vero E6 (CPE & MTT)

## O=C[C@H](O)[C@@H](O)[C@H](O)CO [D-xylose]
Administration at the same time as the virus
  IC50: 26.2 mM
Preincubation with cells 6 h before infection
  IC50: 95.5 mM
